Assay [1] has as its system rgSARS-CoV-2 with 3CL^pro mutations. The class given is cell-based, SARS-CoV-2.
The target in a further assay is SARS-CoV-2 3CL^pro (Severe acute respiratory syndrome coronavirus 2, UniProt P0DTD1). The assay can be described thus: biochemical. The class given is biochemical.
The test system of the next assay is SARS-CoV-2 variants. The experiment in a line: microbe, parasite or virus in culture. The class given is cell-based.
In assay [2] the test system is SARS-CoV-2 Omicron strains. The experiment in a line: microbe, parasite or virus in culture. The class given is cell-based. To be noted: Severe acute respiratory syndrome coronavirus 2, Epithelial cell, read-out: EC90 against the Omicron variants in hAECs.

Where two headings read alike, the source gives them in different places.

In the case of `CCC(CC)COC(=O)[C@H](C)N[P@](=O)(OC[C@H]1O[C@@](C#N)(c2ccc3c(N)ncnn23)[C@H](O)[C@@H]1O)Oc1ccccc1` [remdesivir], the response in assay [1] was half-maximal at 2010 ± 80 nM (EC50).
`Cc1cncc(-n2c(=O)c(Cc3cc(F)c(F)c(F)c3)c(N3CCCC3)n(CC#N)c2=O)c1` [Compound 5, 2-(3-(5-Methylpyridin-3-yl)-2,4-dioxo-6-(pyrrolidin-1-yl)-5-(3,4,5-trifluorobenzyl)-3,4-dihydropyrimidin-1(2H)-yl)-acetonitrile]: the “decrease in activity versus compound 4” value at SARS-CoV-2 3CL^pro was > 10 -fold.
Consider `Cn1cnc(Cn2c(=O)[nH]/c(=N\c3cc4cn(C)nc4cc3Cl)n(Cc3cc(F)c(F)cc3F)c2=O)n1` [ensitrelvir], for which the EC50 – broadly, the concentration at which the effect is half-maximal – in the assay on SARS-CoV-2 variants was 259 ± 41 nM.
With `N#CCn1c(N2CC3(C2)CC(F)(F)C3)c(-c2ccc(F)c(Cl)c2)c(=O)n(-c2cncc(Cl)c2)c1=O` [Compound 17, [5-(3-Chloro-4-fluorophenyl)-3-(5-chloropyridin-3-yl)-6-(6,6-difluoro-2-azaspiro[3.3]-heptan-2-yl)-2,4-dioxo-3,4-dihydropyrimidin-1(2H)-yl]-acetonitrile], the EC90 (as a rule, the concentration at which the effect reaches the 90% level) in assay [2] fell in the range of 2.31 to 2.41 nM. Besides, in the assay on SARS-CoV-2 variants (Severe acute respiratory syndrome coronavirus 2, VeroE6/TMPRSS2, read-out: EC50 against various SARS-CoV-2 variants), the EC50 lay within 2.27 to 12.5 nM.
With `CC(C)(C)[C@H](NC(=O)C(F)(F)F)C(=O)N1C[C@H]2[C@@H]([C@H]1C(=O)N[C@H](C#N)C[C@@H]1CCNC1=O)C2(C)C` [nirmatrelvir, reference compound], the concentration for a half-maximal effect (EC50) in assay [1] was 3150 ± 1010 nM.

The values above are taken from PMC12557365 (Journal of Medicinal Chemistry, 2025).
